Reference: patent US20250144115A1, “AMIDE COMPOUND AS POTASSIUM CHANNEL REGULATOR, AND PREPARATION THEREFOR AND USE THEREOF” (Shanghai Zhimeng Biopharma, Inc., priority 2022, published 2025)

Molecular target: T1, KCNQ2 potassium channels (CHO-KCNQ2 cells) (Homo sapiens, UniProt O43526)
T1 construct: expressed in transfected cells; host or cells: CHO cells stably expressing KCNQ2 (G418 selection in the culture medium)
Experiment: Potassium ion channel opener activity test (FDSS/μCELL detection, FluxOR thallium flux)
Format: cell-based
Conditions: 8 concentrations 0.045-100 μM; for EC50: 3 replicate wells; for Emax: ratio at 180 s, read-out: Maximum agonistic rate (%)
Procedure: Example A1 Potassium Ion Channel Opener Activity Test (FDSS/μ CELL Detection)
Cell preparation: CHO-KCNQ2 cells were cultured in a 175 cm^2 culture flask, and when the cell density grew to 60˜80%, the culture medium was removed and the cells were washed once with 7 mL PBS (Phosphate Buffered Saline), and then 3 mL of 0.25% Trypsin was added for digestion. After completion of digestion, 7 mL of culture medium (90% DMEM/F12+10% FBS+500 μg/mL G418) was added to neutralize, and centrifuged at 800 rpm for 3 min; the supernatant was aspirated, then 5 mL of culture medium was added to resuspend the cells, and the cells were counted.
Cell spreading: according to the cell counting results, the density was adjusted to 3×10^4 cells/well. After standing at room temperature for 30 minutes, the cells were placed in a CO2 incubator at 37° C. overnight, and incubated for 16-18 hours to reach a cell density of about 80%.
Fluorescent dye incubation: Cell culture solution was discarded, 80 μL/well of loading buffer was added and the cells were incubated for 60 minutes at room temperature and protected from light.
Compound incubation: Loading buffer was discarded, 80 μL/well of prepared compound solution was added, and the cells were incubated for 20 min at room temperature and protected from light.
Fluorescence data acquisition: Real-time fluorescence signal recording was performed using an FDSS/μCELL instrument with an excitation wavelength of 480 nm and an emission wavelength of 540 nm, and the signal was recorded once per second. 10 seconds of the baseline was recorded, then 20 μL/well of stimulation buffer was added, and the recording was continued until the end of 180 seconds.
20 mM stock solution of compound in DMSO was prepared, 10 μL of 20 mM compound stock solution was taken into 20 μL of DMSO solution, and a 3-fold serial dilution was performed to form 8 intermediate concentrations; then the intermediate concentrations of the compounds were taken respectively into test buffer, and a 200-fold dilution was performed to obtain the final concentration to be tested, and 80 μL was taken and added to the assay plate.
The highest test concentration was 100 μM, and there was a total of 8 concentrations, i.e., 100, 33.33, 11.11, 3.70, 1.23, 0.41, 0.137, 0.045 μM, respectively, with 3 replicate wells for each concentration.
The experimental data were analyzed by Excel 2007, GraphPad Prism 5.0 software, and the ratio of 180 s was counted to calculate the agonistic effect. The agonistic effect of the compound was calculated by the following equation:
• Environment: Temperature ˜25° C. • Reagent: FluxOR™ detection kit (Invitrogen, Cat #F0017) • The experimental data in the report must meet the following criteria: Z′ Factor>0.5 2. Results: See Table 1 for details, wherein a smaller EC50 indicates a higher activity of the corresponding compound.

T1 sequence (O43526 whole entry): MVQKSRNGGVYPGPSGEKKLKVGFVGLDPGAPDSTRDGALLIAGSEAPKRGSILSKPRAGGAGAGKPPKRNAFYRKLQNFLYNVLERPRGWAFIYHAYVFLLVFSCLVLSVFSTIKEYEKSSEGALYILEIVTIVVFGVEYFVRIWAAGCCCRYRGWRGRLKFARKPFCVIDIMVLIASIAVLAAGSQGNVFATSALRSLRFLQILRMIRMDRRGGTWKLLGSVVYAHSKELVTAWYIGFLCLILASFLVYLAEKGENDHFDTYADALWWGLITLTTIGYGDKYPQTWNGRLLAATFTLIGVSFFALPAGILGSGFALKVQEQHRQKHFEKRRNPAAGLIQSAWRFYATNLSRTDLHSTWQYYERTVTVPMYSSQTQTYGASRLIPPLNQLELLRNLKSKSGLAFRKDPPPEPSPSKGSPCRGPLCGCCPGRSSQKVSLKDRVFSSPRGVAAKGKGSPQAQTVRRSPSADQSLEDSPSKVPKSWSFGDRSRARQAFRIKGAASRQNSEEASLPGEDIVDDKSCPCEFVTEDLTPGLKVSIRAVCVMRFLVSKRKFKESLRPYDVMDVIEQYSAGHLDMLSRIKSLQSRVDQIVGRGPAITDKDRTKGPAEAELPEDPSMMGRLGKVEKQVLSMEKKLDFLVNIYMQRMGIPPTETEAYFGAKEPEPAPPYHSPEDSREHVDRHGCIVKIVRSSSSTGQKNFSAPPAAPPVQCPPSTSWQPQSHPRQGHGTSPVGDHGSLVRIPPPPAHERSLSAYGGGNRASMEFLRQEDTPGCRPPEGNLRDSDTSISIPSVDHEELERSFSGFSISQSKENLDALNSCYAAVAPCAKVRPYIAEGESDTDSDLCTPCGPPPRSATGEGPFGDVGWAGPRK

| SMILES | EC50 [nM] | Emax [%] |
| --- | --- | --- |
| Cc1cc(N2CCc3cc(C(F)(F)F)ccc3C2)cc(C)c1NC(=O)CC1(C)CC1 [Compound 3001] | 86 | 45.6 |
| Cc1cc(N2CCCCc3cc(C(F)(F)F)ccc32)cc(C)c1NC(=O)CC1(C)CC1 [Compound 3002] | 580 | 28.1 |
| Cc1cc(N2CCOc3cc(C(F)(F)F)ccc3C2)cc(C)c1NC(=O)CC1(C)CC1 [Compound 3003] | 18 | 39.6 |
| Cc1cc(N2CCCOc3cc(C(F)(F)F)ccc32)cc(C)c1NC(=O)CC1(C)CC1 [Compound 3004] | 580 | 17.7 |
| Cc1cc(N2CCc3sc(F)cc3C2)cc(C)c1NC(=O)CC1(C)CC1 [Compound 3005] | 110 | 46.7 |
| Cc1cc(N2CCn3cccc3C2)cc(C)c1NC(=O)CC1(C)CC1 [Compound 3006] | 270 | 34.9 |
| Cc1ccc2c(c1)CCCCN2c1cc(C)c(NC(=O)CC2(C)CC2)c(C)c1 [Compound 3007] | 30 | 41.5 |
| Cc1cc(N2CCOc3cc(F)ccc3C2)cc(C)c1NC(=O)CC1(C)CC1 [Compound 3008] | 17 | 40.9 |
| Cc1ccc2c(c1)OCCCN2c1cc(C)c(NC(=O)CC2(C)CC2)c(C)c1 [Compound 3009] | 71 | 36.1 |
| Cc1cc(N2CCCn3cccc3C2)cc(C)c1NC(=O)CC1(C)CC1 [Compound 3010] | 3700 | 35.3 |
| Cc1cc(N2CCSc3ccccc3C2)cc(C)c1NC(=O)CC1(C)CC1 [Compound 3011] | 4.3 | 49.4 |
